Data on 7 molecules can be found in article PMC6270258, “Diosgenone Synthesis, Anti-Malarial Activity and QSAR of Analogues of This Natural Product” (Molecules, 2013).

Read-outs that look alike come from different tables or passages of the source.

Data set [1] deals with Plasmodium falciparum FCB-2 (chloroquine-resistant) strain. Put plainly: In vitro antiplasmodial activity, [3H]hypoxanthine incorporation, FCB-2 strain. The format is cell-based. To be noted: for RI (resistance index): IC50 FCB-2 (resistant strain)/IC50 NF-54 (sensitive strain).
Procedure: (§1) A 10 mg/mL stock solution was prepared. […] A 50 μL sample was extracted from this solution and adjusted to 1,000 μL with RPMI-1640 without hypoxanthine until a final 500 μg/mL concentration was reached. The P. falciparum FcB-2 (Colombia) and NF54 (The Netherlands) strains were used for assessing anti-malarial activity.
(§2) Trager and Jensen’s method was used for culturing strains [24, 25]. The methods described by Desjardins et al. [26] were used for evaluating the structural analogs’ in vitro antiplasmodial activity, with some modifications. […] 1.0 µCi/mL of [3H] hypoxanthine (MP Biomedicals, Santa Ana, CA, USA) was added to each well and the plates were then incubated for 48 h at 37 °C in 5% CO2, 5% O2 in a balanced N2 atmosphere. Parasite DNA was harvested and radioactivity was determined by automatic TDCR liquid scintillation counter plate (Chameleon, Hidex Oy, Finland). Experiments were repeated twice with two or three replicates each. A nonlinear regression sigmoidal dose-response (variable slope) model was used to estimate concentration inhibiting 50% growth (IC50) values for each derivative.
Data set [2] has as its system Plasmodium falciparum NF-54 strain. Put plainly: In vitro antiplasmodial activity, [3H]hypoxanthine incorporation, NF-54 strain. It is filed as cell-based. To be noted: 48 h, read-out: IC50 μM ± SD NF-54.
Procedure: as §1, §2
Data set [3] has as its system Plasmodium berghei (ANKA strain). Description: Peters' 4-day suppressive test in P. berghei-infected mice. It is filed as in vivo, Plasmodium berghei in Balb/C mice. The following applies: for reduction in parasitemia: 4 daily doses.
Procedure: Antimalarial activity was expressed as the percentage of parasite multiplication inhibition.
Antimalarial activity was assessed in vivo in the P. berghei rodent malaria model according to Peters’ 4-day suppressive test in P. berghei-infected (ANKA strain), 5–6 week-old Balb/C mice (males and females) weighing 23 ± 5 g; parasitemia kinetics were evaluated following treatment [2]. […] The donor mice were anesthetized with a 5 mg/kg xylazine and 50 mg/kg ketamine cocktail; blood was then collected via intracardiac route and 100 uL of 5 × 10^6 P. berghei ANKA-parasitised parasitized erythrocytes per experimental mouse were inoculated. Mouse infection was checked one day later by thin smear blood test and Giemsa staining.
The nature of data set [4]: Cytotoxicity, MTT colorimetric test. It is filed as cell-based, human. The following applies: human. A general note: Tetrazolium dyes change colour on reduction, which living cells bring about.
Procedure: (§3) Steroidal derivatives’ cytotoxicity regarding the HepG2-A16 cell line was evaluated by colorimetric test using 3-(4,5-dimethylthiazolyl-2)-2,5-diphenyltetrazolium bromide (MTT), as described by Mosmann [28]. […] An aliquot of each derivative dilution (100 μL, 1,000, 100, 10 and 1 μg/mL) was then added to the wells in triplicate. […] The DMSO diluent agent was evaluated in complete medium and negative controls (untreated cells) were included. Absorbance was measured at 550 nm and statistical Prism software version 5.0 (GraphPad Software Inc., La Jolla, CA, USA) was used for calculating toxic concentration (CC50). Amphotericin B was used as positive control in this assay.
For data set [5], the system named is Plasmodium falciparum FCB-2 (chloroquine-resistant) strain. On the set-up: method as in doi:10.1016/S0040-4020(98)00632-2, PMID 11807967. The following applies: reported earlier; cited from earlier work.
The subject of data set [6] is HepG2-A16 human hepatoma cells. Description: Cytotoxicity, MTT colorimetric test. It is filed as cell-based. The following applies: CC50 HepG2/IC50 parasite FCB-2.
Procedure: as §3
Setting [7] is: Plasmodium falciparum, 48 h, P. falciparum FCB-2 chloroquine-resistant strain, 48 h, read-out: IC50 μM ± SD FCB-2.
Where [8] appears, read: P. falciparum NF-54 chloroquine-sensitive strain.

One may read the IC50 as the midpoint of a concentration-inhibition curve. For `CCN(CC)CCCC(C)Nc1ccnc2cc(Cl)ccc12` (centres unmarked) [CQ, chloroquine, reference compound], the IC50 amounted to 0.157 ± 0.01 µM in data set [1] (Plasmodium falciparum, 48 h, read-out: IC50 μM ± SD FCB-2); 0.158 µM in data set [1] (Plasmodium falciparum, read-out: IC50 in the FCB-2 strain); 0.02 ± 0.005 µM in data set [2]. For the same molecule, the reduction of parasitemia in data set [3] (5 mg/kg oral, second day of treatment) is on record as 100.0%.
One may read the CC50 as the concentration that lowers cell viability or growth by half. High values mean lower toxicity to the cells, low ones greater toxicity to the cells. As to `C[C@@H]1CC[C@@]2(OC1)O[C@H]1C[C@H]3[C@@H]4CCC5=CC(=O)CC[C@]5(C)[C@H]4CC[C@]3(C)[C@H]1[C@@H]2C` [Compound 2, (25R)-4-Spirosten-3-one], the half-maximal inhibitory concentration (IC50) in data set [1] (setting [7]) stood at 27.9 ± 5.5 µM; in data set [2] (setting [8]), 35.4 ± 2.2 µM. In addition, in data set [4], the CC50 at 48 h stood at 265 µM. Further, the “in vivo effect on parasites (in words)” value in data set [3] (100 mg/kg oral) is listed as “no decrease in the amount of parasites”. Besides, in data set [3] (100 mg/kg oral, fifth day post treatment, vehicle controls 36.0%), the “parasitaemia (parasitized erythrocytes)” value amounted to 50.0%. In addition, the “antiplasmodial activity against FcB-2 chloroquine-resistant strains (in words)” value in data set [5] is “have antiplasmodial activity”.
Turning to `CC(=O)O[C@H]1CC2C3CCC4=CC(=O)CC[C@]4(C)C3CC[C@]2(C)[C@H]1[C@H](C)C(=O)CC[C@@H](C)CO` (some centres unmarked) [Compound 3], in data set [1], the “RI (resistance index)” value came to 0.6. In addition, the IC50 turned out to be 21.35 ± 0.2 µM in data set [1] (P. falciparum FCB-2 chloroquine-resistant strain, 48 h, read-out: IC50 μM ± SD FCB-2); 21.4 µM in data set [1] (setting [7]); 33 ± 0.8 µM in data set [2] (setting [8]). For the same molecule, the 50% cytotoxic concentration (CC50) at 48 h in data set [4] was determined as 60 µM. In data set [6], the “SI (selectivity index)” value came out at 2.8. For the same molecule, in data set [5], the “antiplasmodial activity against FcB-2 chloroquine-resistant strains (in words)” value is given as “have antiplasmodial activity”.
As for `C[C@@H](CO)CCC(=O)[C@@H](C)[C@H]1[C@@H](O)CC2C3CCC4=CC(=O)CC[C@]4(C)C3CC[C@@]21C` (some centres unmarked) [Compound 4], the “RI (resistance index)” value in data set [1] is reported as 0.9. The IC50 in data set [1] (setting [7]) was found to be 223 ± 12.3 µM; in data set [2] (setting [8]), 248 ± 5.3 µM. Further, the CC50 at 48 h in data set [4] came to 2150 µM. Moreover, the “SI (selectivity index)” value in data set [6] was 9.6. Moreover, the “antiplasmodial activity against FcB-2 chloroquine-resistant strains (in words)” value in data set [5] is “have antiplasmodial activity”.
For orientation: melting point means the temperature, or range, at which the solid turns liquid. As to `CC1CCC2(OC1)OC1(O)CC3C4CCC56OC5C(=O)CCC6(C)C4CCC3(C)C1C2C` [Compound 14, (25R)-4,5-Epoxy-spirostan-16α-hydroxy-3-one], the melting point fell in the range of 145 to 147 °C. For the same molecule, in data set [1], the “RI (resistance index)” value is 1.2. For the same molecule, the IC50 in data set [1] (setting [7]) worked out at 10.1 ± 1.3 µM. For the same molecule, in data set [2] (setting [8]), the IC50 is 8.5 ± 2.3 µM. In data set [4], the CC50 at 48 h was 153 µM. In addition, the “SI (selectivity index)” value in data set [6] turned out to be 15.2. The molecule further showed a reduction in parasitemia in data set [3] (100 mg/kg oral) of 36.7%.
The molecule `C[C@@H]1CC[C@@]2(OC1)O[C@H]1C[C@H]3[C@@H]4CC(=O)C5=CC(=O)CC[C@]5(C)[C@H]4CC[C@]3(C)[C@H]1[C@@H]2C` [Compound 18, (25R)-4-Spirosten-3,6-dione] had a melting point of 200 to 202 °C. Besides, the “RI (resistance index)” value in data set [1] came to 1.2. Also, the “antiplasmodial activity (in words)” value in data set [1] (P. falciparum FCB-2 and NF-54 strains, compared to diosgenone or parent) was “more active than diosgenone”. Further, the concentration for half-maximal inhibition (IC50) in data set [1] (setting [7]) came to 11.3 ± 1.6 µM. In data set [2] (setting [8]), the IC50 was found to be 9.8 ± 1 µM. The molecule further yielded a cytotoxic concentration (CC50) at 48 h in data set [4] of 192 µM. In data set [6], the “SI (selectivity index)” value is reported as 16.9. The reduction in parasitemia in data set [3] (100 mg/kg oral) is reported as 35.0%.
Consider `CC(=O)OC1C[C@H]2[C@@H]3CCC4=CC(O)CC[C@]4(C)[C@H]3CC[C@]2(C)[C@H]1[C@H](C)C(O)CC[C@@H](C)CO` (stereo partly drawn) [Compound 24, (25R)-16-Acetoxy-4-cholesten-3,22,26-triol], for which the melting point lay within 144 to 146 °C. Also, the “RI (resistance index)” value in data set [1] worked out at 0.9. Besides, the IC50 in data set [1] (setting [7]) stood at 95 ± 7.3 µM. Also, in data set [2] (setting [8]), the IC50 amounted to 101 ± 9.9 µM. The molecule further registered a 50% cytotoxic concentration (CC50) at 48 h in data set [4] of 306 µM. Moreover, the “SI (selectivity index)” value in data set [6] is reported as 3.2.
